Experimental data from patent US20230200388A1, “COMPOUNDS AND METHODS FOR STIMULATING PLANTS” (Sound Agriculture Company, priority 2020, published 2023).

Tests used:
Format in all cases: cell-based
[1] = test system: soil's native microbial community; test: Phosphate solubilization in soil consortia (soil as inoculum in NBRIP media); conditions: relative to soil not contacted with QC
From the text: To determine if a test compound, QC, alters phosphate solubilization in a soil's native microbial community, dried and sieved soil was used as a bacterial inoculum in NBRIP media with and without QC.

[2] = test system: nifHpro::luciferase Azotobacter vinelandii reporter strain; test: nifHpro::luciferase bioreporter assay for nitrogen fixation; conditions: 1 μM, 24 h, relative to control bacteria not contacted
Method: Three hundred base pairs upstream of the ATG of the nifHDK of Azotobacter vinelandii (nifHipro) was cloned in frame, upstream of luciferase in pVSP61 (kanR). Azotobacter vinelandii (Lipman ATCC® BAA-1303) was transformed with the reporter plasmid with triparental mating, Transformants were selected for on nitrogen-free kanamycin plates and confirmed with PCR and sequencing.
Five milliliters of nifHpro::luciferase Bioreporter strain #171 was grown overnight in autoclaved, nitrogen-free medium (Burks, HiMedia M707) at starting OD600=0.02 with 1 ug/mL Kanamycin in sterile 50 mL flasks. Chemical treatments were dissolved in 100% EtOH and added at appropriate concentrations, keeping the volume constant. The solvent was no more than 2% of the final culture volume, and solvent only controls were included in each experiment.
After 24 h, the growth density each culture was read in a clear, flat-bottomed microplate by adding 180 μl to each well (flasks were measured in triplicate) and measuring absorbance at 600 nm in a microplate reader. […]
The luminescence of each well was read on an iD3 plate reader (Molecular Devices). Luminescence of each well (reported as RLU, Relative Light Unit) was divided by its OD600 in order to adjust for culture density.

[3] = test system: nifHpro::luciferase Azotobacter vinelandii reporter line; test: Nitrogenase (nifH) activity with nifHpro::luciferase Azotobacter vinelandii reporter line; conditions: 10 μM to 0.001 μM in DMSO, 21 hours, over controls, n=9 experiments, FIG. 6
Method: Gibson Assembly was used to clone the luciferase gene (ordered from IDT) into pE_Gm and LR into pVSP61 (plasmids provided by Doug Dahlbeck at Staskawicz Lab, UC Berkeley). Standard triparental mating was used with pRK600 (provided by Doug Dahlbeck at Staskawicz Lab, UC Berkeley) to obtain the final reporter strain of Azotobacter vinelandii transformed with reporter plasmid.
nifHpro::luciferase Azotobacter vinelandii were grown for 24 hours in 50 mL liquid Burks —N media (HiMedia Laboratories) with 1 ng/μL Kanamycin, shaking at 100 RPM under lights at ˜30° C. After 24 hours, supernatant was spun down 12000 G for two minutes to collect cells. After supernatant was removed, cells were washed with cleared Burks —N liquid media supernatant, resuspended, and centrifuged again at 12000 G. This process was repeated, for a total of two washes.
Resuspended cells were combined with Burks —N media with 1 ng/μL Kanamycin, to obtain a fresh culture at OD 0.1. 50 mL shake flasks were then inoculated with 5 mL of this culture, plus appropriate chemistry, in the scheme that follows. A stock solution of Quercetin was made in DMSO. […]
After 21 hours, 50 mL flasks were removed from the shaker. […] Plates were inserted into plate reader and luminescence of each well was analyzed.

| Compound | amount of detectable orthophosphate in the growth media of soil-inoculated cultures [1] | luminescence (nitrogen fixation) [2] | activation of nifHpro::luciferase bioreporter (nitrogenase gene expression) [3] |
| --- | --- | --- | --- |
| O=c1c(O)c(-c2ccc(O)c(O)c2)oc2cc(O)cc(O)c12 [QC, quercetin] | increased | significant increase | – |
| O=c1c(O)c(-c2ccc(O)c(O)c2)oc2cc(O)cc(O)c12 [Formula Id] | – | – | activated |
